≈ marks a conversion by molar mass, not a printed value.
What was measured:
[1] = system: Escherichia coli; test: Zone of Escherichia coli inhibition at 30 ug; assay type: functional
[2] = system: Bacillus subtilis; test: Zone of Bacillus subtilis inhibition at 30 ug; assay type: functional
[3] = system: P388; test: Antiproliferative activity against murine P388D1 cell line; assay type: functional, cell-based; settings: Mus musculus

SMILES | inhibition zone (IZ) [1] | inhibition zone (IZ) [2] | IC50 [3]
CSC1=CC(=O)C(Br)=C[C@]12C=CNC1=C2C2=NCCc3c[nH]c(c32)C1=O | 0 mm | 3 mm | 0.081 µg/mL (≈ 0.189 µM)
O=C1C=C(SC(=O)c2ccccc2)[C@@]2(C=CNC3=C2C2=NCCc4cn(C(=O)c5ccccc5)c(c42)C3=O)C=C1Br | 0 mm | 0 mm | 0.918 µg/mL (≈ 1.47 µM)
O=C1C=C2S[C@H]3C[C@]2(C=C1Br)C1=C(N3)C(=O)c2[nH]cc3c2C1=NCC3 [(+)-DISCORHABDIN B] | 1 mm | 6 mm | 0.044 µg/mL (≈ 0.106 µM)
O=C1C(Br)=CC2(C=C1Br)CCNC1=C2C2=NCCc3c[nH]c(c32)C1=O [DISCORHABDIN C] | 1 mm | 8 mm | 0.062 µg/mL (≈ 0.134 µM)
CSC1=CC(=O)C(Br)=C[C@]12C=CNC1=C2C2=NCCc3cn(C)c(c32)C1=O [DISCORHABDIN U] | 0 mm | 3 mm | 0.089 µg/mL (≈ 0.201 µM)
Cn1cc2c3c1C(=O)C1=C(C3=NCC2)C2(C=C(Br)C(=O)C(Br)=C2)CCN1 [DISCORHABDIN] | 0 mm | 8 mm | 0.182 µg/mL (≈ 0.381 µM)
